Measurements from PubChem BioAssay (NCI).
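Tested at 5 concentrations; 48 h exposure; 96-well plates; endpoints linearly interpolated, else capped at highest concentration. Here, GI50 denotes the concentration required for 50% inhibition of growth. TGI: concentration producing complete growth inhibition.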

What was measured:
Assay in all cases: inhibition of tumour cell growth, NCI panel, 48 h
786-0 renal = system: 786-0 renal
A498 renal = system: A498 renal
A549 NSCLC = system: A549 NSCLC
ACHN renal = system: ACHN renal
BT-549 breast = system: BT-549 breast
CAKI-1 renal = system: CAKI-1 renal
CCRF-CEM leukemia = system: CCRF-CEM leukemia
COLO 205 colon = system: COLO 205 colon
DU-145 prostate = system: DU-145 prostate
EKVX NSCLC = system: EKVX NSCLC
HCC-2998 colon = system: HCC-2998 colon
HCT-116 colon = system: HCT-116 colon
HCT-15 colon = system: HCT-15 colon
HL-60(TB) leukemia = system: HL-60(TB) leukemia
HOP-62 NSCLC = system: HOP-62 NSCLC
HOP-92 NSCLC = system: HOP-92 NSCLC
HS 578T breast = system: HS 578T breast
HT29 colon = system: HT29 colon
IGROV1 ovarian = system: IGROV1 ovarian
K-562 leukemia = system: K-562 leukemia
KM12 colon = system: KM12 colon
LOX IMVI melanoma = system: LOX IMVI melanoma
M14 melanoma = system: M14 melanoma
MALME-3M melanoma = system: MALME-3M melanoma
MCF7 breast = system: MCF7 breast
MDA-MB-231 breast = system: MDA-MB-231 breast
MDA-MB-435 = system: MDA-MB-435
MDA-MB-468 breast = system: MDA-MB-468 breast
MOLT-4 leukemia = system: MOLT-4 leukemia
NCI-H226 lung = system: NCI-H226 lung
NCI-H23 lung = system: NCI-H23 lung
NCI-H460 lung = system: NCI-H460 lung
NCI-H522 lung = system: NCI-H522 lung
NCI/ADR-RES ovarian = system: NCI/ADR-RES ovarian
OVCAR-3 ovarian = system: OVCAR-3 ovarian
OVCAR-4 ovarian = system: OVCAR-4 ovarian
OVCAR-5 ovarian = system: OVCAR-5 ovarian
OVCAR-8 ovarian = system: OVCAR-8 ovarian
PC-3 prostate = system: PC-3 prostate
RPMI-8226 leukemia = system: RPMI-8226 leukemia
RXF 393 renal = system: RXF 393 renal
SF-268 CNS = system: SF-268 CNS
SF-295 CNS = system: SF-295 CNS
SF-539 CNS = system: SF-539 CNS
SK-MEL-2 melanoma = system: SK-MEL-2 melanoma
SK-MEL-28 melanoma = system: SK-MEL-28 melanoma
SK-MEL-5 melanoma = system: SK-MEL-5 melanoma
SK-OV-3 ovarian = system: SK-OV-3 ovarian
SN12C renal = system: SN12C renal
SNB-19 CNS = system: SNB-19 CNS
SNB-75 CNS = system: SNB-75 CNS
SW-620 colon = system: SW-620 colon
T-47D breast = system: T-47D breast
TK-10 renal = system: TK-10 renal
U251 CNS = system: U251 CNS
UACC-257 melanoma = system: UACC-257 melanoma
UACC-62 melanoma = system: UACC-62 melanoma
UO-31 renal = system: UO-31 renal

Work on Cc1cccc(-c2nc(Nc3ccc(C)c(S(N)(=O)=O)c3)c3ccccc3n2)c1 yielded a GI50 (786-0 renal) of 5.68 µM, a TGI (786-0 renal) of 17.8 µM and a GI50 (A498 renal) of 8.25 µM. For the same compound, the TGI (A498 renal) was 25.8 µM, the GI50 (A549 NSCLC) was 6.51 µM and the TGI (A549 NSCLC) was 32.8 µM. The GI50 (ACHN renal) was 4.8 µM, the TGI (ACHN renal) was 21 µM and the GI50 (BT-549 breast) was 15.8 µM. The TGI (BT-549 breast) was 63.5 µM, the GI50 (CAKI-1 renal) was 5.78 µM and the TGI (CAKI-1 renal) was 21.8 µM. The GI50 (CCRF-CEM leukemia) was 4.11 µM, the TGI (CCRF-CEM leukemia) was 25.8 µM and the GI50 (COLO 205 colon) was 7.07 µM. It also gave a TGI (COLO 205 colon) of 19.8 µM, a GI50 (DU-145 prostate) of 13.1 µM and a TGI (DU-145 prostate) of 69.2 µM. It also gave a GI50 (EKVX NSCLC) of 6.18 µM, a TGI (EKVX NSCLC) of 24.1 µM and a GI50 (HCC-2998 colon) of 3.1 µM. The TGI (HCC-2998 colon) was 10.8 µM, the GI50 (HCT-116 colon) was 5.84 µM and the TGI (HCT-116 colon) was 19.6 µM. It also gave a GI50 (HCT-15 colon) of 3.07 µM, a TGI (HCT-15 colon) of 10.8 µM and a GI50 (HL-60(TB) leukemia) of 4.67 µM. The TGI (HL-60(TB) leukemia) was 61.5 µM, the GI50 (HOP-62 NSCLC) was 11 µM and the TGI (HOP-62 NSCLC) was 26.6 µM. It also gave a GI50 (HOP-92 NSCLC) of 6.46 µM, a TGI (HOP-92 NSCLC) of 27.2 µM and a GI50 (HS 578T breast) of 10.4 µM. For the same compound, the TGI (HS 578T breast) was 61.1 µM, the GI50 (HT29 colon) was 4.67 µM and the TGI (HT29 colon) was 18.8 µM. It also gave a GI50 (IGROV1 ovarian) of 10.3 µM, a TGI (IGROV1 ovarian) of 32.7 µM and a GI50 (K-562 leukemia) of 3.47 µM. The TGI (K-562 leukemia) was 19 µM, the GI50 (KM12 colon) was 3.32 µM and the TGI (KM12 colon) was over 100 µM. For the same compound, the GI50 (LOX IMVI melanoma) was 3.31 µM, the TGI (LOX IMVI melanoma) was 12.5 µM and the GI50 (M14 melanoma) was 9.55 µM. For the same compound, the TGI (M14 melanoma) was 21.3 µM, the GI50 (MALME-3M melanoma) was 13.9 µM and the TGI (MALME-3M melanoma) was 32.1 µM. For the same compound, the GI50 (MCF7 breast) was 3.16 µM, the TGI (MCF7 breast) was 12.9 µM and the GI50 (MDA-MB-231 breast) was 4.04 µM. The TGI (MDA-MB-231 breast) was 17.5 µM, the GI50 (MDA-MB-435) was 10.5 µM and the TGI (MDA-MB-435) was 67.3 µM. For the same compound, the GI50 (MDA-MB-468 breast) was 4.07 µM, the TGI (MDA-MB-468 breast) was 16.5 µM and the GI50 (MOLT-4 leukemia) was 3.73 µM. It also gave a TGI (MOLT-4 leukemia) of 33.8 µM, a GI50 (NCI-H226 lung) of 11.6 µM and a TGI (NCI-H226 lung) of 35.1 µM. It also gave a GI50 (NCI-H23 lung) of 13.3 µM, a TGI (NCI-H23 lung) of 33.5 µM and a GI50 (NCI-H460 lung) of 3.94 µM. For the same compound, the TGI (NCI-H460 lung) was 25 µM, the GI50 (NCI-H522 lung) was 2.72 µM and the TGI (NCI-H522 lung) was 7.93 µM. For the same compound, the GI50 (NCI/ADR-RES ovarian) was 5.6 µM, the TGI (NCI/ADR-RES ovarian) was 35.9 µM and the GI50 (OVCAR-3 ovarian) was 9.36 µM. The TGI (OVCAR-3 ovarian) was over 100 µM, the GI50 (OVCAR-4 ovarian) was 8.5 µM and the TGI (OVCAR-4 ovarian) was over 100 µM. For the same compound, the GI50 (OVCAR-5 ovarian) was 12.4 µM, the TGI (OVCAR-5 ovarian) was 27.4 µM and the GI50 (OVCAR-8 ovarian) was 9.17 µM. It also gave a TGI (OVCAR-8 ovarian) of 43.4 µM, a GI50 (PC-3 prostate) of 4.09 µM and a TGI (PC-3 prostate) of 55.4 µM. It also gave a GI50 (RPMI-8226 leukemia) of 4.38 µM, a TGI (RPMI-8226 leukemia) of 35 µM and a GI50 (RXF 393 renal) of 3.3 µM. It also gave a TGI (RXF 393 renal) of 11 µM, a GI50 (SF-268 CNS) of 11.8 µM and a TGI (SF-268 CNS) of over 100 µM. The GI50 (SF-295 CNS) was 2.61 µM, the TGI (SF-295 CNS) was 8.28 µM and the GI50 (SF-539 CNS) was 7.78 µM. For the same compound, the TGI (SF-539 CNS) was 27 µM, the GI50 (SK-MEL-2 melanoma) was 11.4 µM and the TGI (SK-MEL-2 melanoma) was 32.1 µM. For the same compound, the GI50 (SK-MEL-28 melanoma) was 11.4 µM, the TGI (SK-MEL-28 melanoma) was 28.8 µM and the GI50 (SK-MEL-5 melanoma) was 11 µM. It also gave a TGI (SK-MEL-5 melanoma) of 24.7 µM, a GI50 (SK-OV-3 ovarian) of 17.6 µM and a TGI (SK-OV-3 ovarian) of 47.8 µM. The GI50 (SN12C renal) was 11.5 µM, the TGI (SN12C renal) was 28.2 µM and the GI50 (SNB-19 CNS) was 10.5 µM. The TGI (SNB-19 CNS) was 53 µM, the GI50 (SNB-75 CNS) was 13.1 µM and the TGI (SNB-75 CNS) was 52 µM. The GI50 (SW-620 colon) was 6.44 µM, the TGI (SW-620 colon) was 24 µM and the GI50 (T-47D breast) was 3.61 µM. For the same compound, the TGI (T-47D breast) was 16.7 µM, the GI50 (TK-10 renal) was 15.3 µM and the TGI (TK-10 renal) was 41.9 µM. For the same compound, the GI50 (U251 CNS) was 8.08 µM, the TGI (U251 CNS) was 34.2 µM and the GI50 (UACC-257 melanoma) was 18.3 µM. It also gave a TGI (UACC-257 melanoma) of 51.4 µM, a GI50 (UACC-62 melanoma) of 13.6 µM and a TGI (UACC-62 melanoma) of 30.2 µM. It also gave a GI50 (UO-31 renal) of 5.57 µM and a TGI (UO-31 renal) of 27.1 µM.
In the case of COc1ccc(/C=C/c2nc(NCCCN(C)C)c3ccccc3n2)cc1, the GI50 (MDA-MB-468 breast) is reported as 1.31 µM and the TGI (MDA-MB-468 breast) is reported as 2.64 µM.
In the case of COCCOC(=O)NC(=O)Nc1ccc(/C(=N/O)c2ccc(Cl)cc2)cc1, the GI50 (MDA-MB-468 breast) is reported as 0.0813 µM and the TGI (MDA-MB-468 breast) is reported as 0.616 µM.
Work on Nc1nnc2cc(Cl)ccc2n1 yielded a GI50 (MDA-MB-468 breast) of over 100 µM and a TGI (MDA-MB-468 breast) of over 100 µM.
CCOC(=O)c1[nH]c(-c2ccc(Cl)cc2)cc1-c1cccnc1 was tested, and the GI50 (MDA-MB-468 breast) was 0.493 µM and the TGI (MDA-MB-468 breast) was 4.33 µM.
NNc1cccc(/C=C/c2ccccc2)cc1=O gave a GI50 (MDA-MB-468 breast) of 8.46 µM and a TGI (MDA-MB-468 breast) of 90.7 µM.
For COC(=O)c1c2c(c(C)[n+]([O-])c1C)C(=O)C=C(NCc1ccc(F)c(F)c1)C2=O, the GI50 (MDA-MB-468 breast) was 0.242 µM and the TGI (MDA-MB-468 breast) was 0.705 µM.
Work on O=c1nc(Nc2cccc(Cl)c2)oc2cc(Cl)oc(=O)c12 yielded a GI50 (MDA-MB-468 breast) of 2.44 µM and a TGI (MDA-MB-468 breast) of 6.75 µM.
Work on CC1=C[C@H]2c3c(c(O)c(O)c4oc5ccccc5c(=O)c34)[C@H](c3cc(O)c(O)c4oc5ccccc5c(=O)c34)[C@H]2C(C)(C)C1 yielded a GI50 (MDA-MB-468 breast) of 2.02 µM and a TGI (MDA-MB-468 breast) of 6.04 µM.
Work on COc1ccc2c(Nc3ccc(NS(C)(=O)=O)cc3)c3ccccc3nc2c1 yielded a GI50 (MDA-MB-468 breast) of 0.414 µM and a TGI (MDA-MB-468 breast) of 1.74 µM.
COC1CC2C=C(C)/C=C/C=C/C(=O)NC(c3ccccc3)C/C=C/CCC(O)CC(=O)C2=C1O (stereo unspecified) gave a GI50 (MDA-MB-468 breast) of 0.283 µM and a TGI (MDA-MB-468 breast) of 1.24 µM.
